Measured values: patent US12497365B2, “4-pyridinyl formamide compound or derivative thereof, preparation method therefor, herbicidal composition and use thereof” (Qingdao Kingagroot Chemical Compound Co., Ltd., priority 2019, dated 2025)

Experiments:
[1] = tested on: Chenopodium album; test: Weeding effect in post-emergence stage; format: in vivo; settings: active ingredient 2000 g/ha, 3 weeks after application, fresh weight control rate
In short: (§1)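 Read-out is growth control rate based on fresh weight, assessed 3 weeks after treatment in the greenhouse. Plants were sprayed at the 2-3 leaf stage with compound dissolved in acetone, plus Tween 80 and methyl oleate emulsifiable concentrate, at doses from 125 to 2000 g/ha.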

[2] = tested on: Amaranthus retroflexus L.; test: Weeding effect in post-emergence stage; format: in vivo; settings: active ingredient 2000 g/ha, 3 weeks after application, fresh weight control rate
In short: as §1

[3] = tested on: Descurainia sophia; test: Weeding effect in post-emergence stage; format: in vivo; settings: for Activity level (growth control rate), Descurainia sophia: active ingredient 250 g/ha; for Weeding effect, activity level (growth control rate), Descurainia sophia: active ingredient 2000 g/ha, 3 weeks after application, fresh weight control rate
In short: as §1

[4] = tested on: Abutilon theophrasti; test: Weeding effect in post-emergence stage; format: in vivo; settings: active ingredient 2000 g/ha, 3 weeks after application, fresh weight control rate
In short: as §1

[5] = tested on: Alopecurus aequalis; test: Weeding effect in post-emergence stage; format: in vivo; settings: active ingredient 250 g/ha
Description: (§2) The activity level criteria for plant damage (i.e., growth control rate) are as follows:
(§3) The above growth control rates are fresh weight control rates.
(§4) Experiment on weeding effect in post-emergence stage: monocotyledonous and dicotyledonous weed seeds and major crop seeds (wheat, corn, rice, soybean, cotton, oilseed rape, millet, sorghum) were placed in plastic pots filled with soil, then covered with 0.5-2 cm of soil, allowed to grow in a good greenhouse environment. After 2 weeks of sowing, the test plants were treated in the 2-3 leaf stage. The tested compounds of the present invention were respectively dissolved in acetone at the dosage of 2000, 1000, 500, 250, 125 g/ha, then added with Tween 80 and 1.5 liter/ha of emulsifiable concentrate of methyl oleate as synergist, diluted with a certain amount of water to obtain a solution with a certain concentration, and sprayed with a spray tower onto the plants. After the application, the plants were cultured for 3 weeks in the greenhouse, and then the experimental results were listed in Table 1.
(§5) In addition, under the active ingredient of 250 g/ha, many compounds also show good crop selectivity and excellent control effect on key weeds.

[6] = tested on: Alopecurus myosuroides; test: Weeding effect in post-emergence stage; format: in vivo; settings: active ingredient 250 g/ha
Description: as §2, §3, §4, §5

[7] = tested on: Beckmannia syzigachne; test: Weeding effect in post-emergence stage; format: in vivo; settings: active ingredient 250 g/ha
Description: as §2, §3, §4, §5

[8] = tested on: Sclerochloa dura; test: Weeding effect in post-emergence stage; format: in vivo; settings: active ingredient 250 g/ha
Description: as §2, §3, §4, §5

[9] = tested on: Wheat; test: Crop selectivity in post-emergence stage; format: in vivo; settings: active ingredient 250 g/ha
Description: as §2, §3, §4, §5

[10] = tested on: Echinochloa crusgalli, Scirpus juncoides, Bidens tripartita L., Sagittaria trifolia, Monochoria vaginalis; test: Weed control effect evaluation in rice field; format: in vivo, rice field weeds; settings: weed seeds collected from Heilongjiang Province of China
Description: Transplanted rice safety evaluation and weed control effect evaluation in rice field:
Rice field soil was loaded into a 1/1,000,000 ha pot. The seeds of Echinochloa crusgalli, Scirpus juncoides, Bidens tripartita L., Sagittaria trifolia, and Monochoria vaginalis were sowed and gently covered with soil, then left to stand still in greenhouse in the state of 0.5-1 cm of water storage. The tuber of Sagittaria trifolia was planted in the next day or 2 days later. It was kept at 3-4 cm of water storage thereafter. The weeds were treated by dripping the WP or SC water diluents prepared according to the common preparation method of the compounds of the present invention with pipette homogeneously to achieve specified effective amount when Echinochloa crusgalli, Scirpus juncoides, Bidens tripartita L., and Monochoria vaginalis reached 0.5 leaf stage and Sagittaria trifolia reached the time point of primary leaf stage.
The fertility condition of Echinochloa crusgalli, Scirpus juncoides, Bidens tripartita L., Sagittaria trifolia and Monochoria vaginalis 14 days after the treatment of the compound of the invention and the fertility condition of rice 21 days after the treatment of the compound of the invention respectively with the naked eye. Evaluate the weed control effect with the above 0-5 activity standard level, many compounds show excellent activity and selectivity. […]

| Structure (SMILES) | Weeding effect, activity level (growth control rate), Chenopodium album [1] | Weeding effect, activity level (growth control rate), Amaranthus retroflexus L. [2] | Activity level (growth control rate), Descurainia sophia [3] | Weeding effect, activity level (growth control rate), Descurainia sophia [3] | Weeding effect, activity level (growth control rate), Abutilon theophrasti [4] | Activity level (growth control rate), Alopecurus aequalis [5] | Activity level (growth control rate), Alopecurus myosuroides [6] | Activity level (growth control rate), Beckmannia syzigachne [7] | Activity level (growth control rate), Sclerochloa dura [8] | Plant damage level (growth control rate), Wheat [9] | Response of the rice field weeds to common doses of the herbicide [10] |
| --- | --- | --- | --- | --- | --- | --- | --- | --- | --- | --- | --- |
| Cn1nnnc1NC(=O)c1ccnc(-c2ccccc2F)c1Cl [Compound 1-15] | 5 (Level 5: growth control rate is above 85%) | 5 (Level 5: growth control rate is above 85%) | 5 (Level 5: growth control rate is above 85%) | 5 (Level 5: growth control rate is above 85%) | 5 (Level 5: growth control rate is above 85%) | 5 (Level 5: growth control rate is above 85%) | 5 (Level 5: growth control rate is above 85%) | 5 (Level 5: growth control rate is above 85%) | 5 (Level 5: growth control rate is above 85%) | 0 (Level 0: growth control rate is less than 5%) |  |
| Cn1nnnc1NC(=O)c1ccnc(-c2ccc(F)cc2)c1Cl [Compound 1-17] | 5 (Level 5: growth control rate is above 85%) | 5 (Level 5: growth control rate is above 85%) | 5 (Level 5: growth control rate is above 85%) | 5 (Level 5: growth control rate is above 85%) | 5 (Level 5: growth control rate is above 85%) | 5 (Level 5: growth control rate is above 85%) | 5 (Level 5: growth control rate is above 85%) | 5 (Level 5: growth control rate is above 85%) | 5 (Level 5: growth control rate is above 85%) | 0 (Level 0: growth control rate is less than 5%) |  |
| Cn1nnnc1NC(=O)c1ccnc(Nc2ccccc2)c1Cl [Compound 1-2075] | 5 (Level 5: growth control rate is above 85%) | 5 (Level 5: growth control rate is above 85%) |  | 5 (Level 5: growth control rate is above 85%) | 5 (Level 5: growth control rate is above 85%) |  |  |  |  |  |  |
| Cc1nonc1NC(=O)c1ccnc(C)c1Cl [Control compound A, reference compound] |  |  | 0 (Level 0: growth control rate is less than 5%) |  |  | 0 (Level 0: growth control rate is less than 5%) | 0 (Level 0: growth control rate is less than 5%) | 0 (Level 0: growth control rate is less than 5%) | 0 (Level 0: growth control rate is less than 5%) | 0 (Level 0: growth control rate is less than 5%) |  |
| COc1cnc(OC)n2nc(NS(=O)(=O)c3c(OCC(F)F)cccc3C(F)(F)F)nc12 [Penoxsulam, penoxsulam] |  |  |  |  |  |  |  |  |  |  | resistant |
| CCOC(=O)c1cnn(C)c1S(=O)(=O)NC(=O)Nc1nc(OC)cc(OC)n1 [Pyrazosulfuron-ethyl, pyrazosulfuron-ethyl] |  |  |  |  |  |  |  |  |  |  | resistant |
